Experimental data: patent US10723744B2, “Transplantation therapies” (Aphios Corporation, priority 2007, dated 2020)
“Also recorded” adds a separate entry of the source. Read-outs that look alike come from different tables or passages of the source.

Tests used:
[1] = system: HUVECs; assay: Neutrophil TEM restoration studies with PKC inhibitors; format: cell-based, human; settings: HUVEC; for restoration of PMN TEM in response to LTB4 by PKC inhibitors (reversal of Bryostatin-1 protection): inhibitor pretreatment (Go-6983, Go-6976: 1, 10, 100 nM), then 100 nM Bryostatin-1
Method: (§1) HUVECs were pretreated with Go-6983 (1, 10, 100 nM), or Go-6976 (1, 10, 100 nM) for 30 minutes, then spiked with 100 nM Bryostatin-1 for 1 hour. HUVECs previously nucleofected with PKC-δ, -ε, or control siRNA were just treated in Bryostatin-1 for 1 hour. HUVECs were washed three times and placed in a new plate containing either 500 μL 100 nM LTB4, or HBSS alone for control. Neutrophils were allowed to migrate for 3 h at 37° C. Migration was stopped by removing the inserts and migration was measured using the MPO assay.
(§2) Neutrophil migration was measured using myeloperoxidase (MPO) analysis. Cell culture inserts were first removed and plates were spun at 1,500 RPM for 5 min. The supernatant was removed, and MPO activity was measured using TMB/peroxide as chromogen. The reaction was stopped with sulfuric acid and absorbance was read at 450 nm using a microplate reader. All experiments were performed n=6. Data was expressed as “% neutrophil migration”, which allowed cumulative statistical analysis to be done and account for unpreventable batch-to-batch variations.

[2] = system: endothelial cells; settings: greater effect seen with PKC-α inhibition; cited from earlier work
[3] = system: HMECs; assay: LTB4 induced neutrophil migration across HMEC monolayers (transwell, MPO assay); format: cell-based, human; settings: 100 nM LTB4; for LTB4 induced neutrophil migration: HMECs on transwells, 1 h pretreatment 100 nM or 10 nM (PMA: 100, 10 or 1 nM), 3 h; for LTB4 induced neutrophil migration (PMN TEM) / LTB4 induced neutrophil TEM: HMECs; for LTB4 induced neutrophil migration (PMN TEM): 1 h pretreatment at 1 nM; for LTB4 induced neutrophil TEM: 1 h pretreatment, higher doses (100 nM)
Method: (§3) At confluency HMECs were treated for 1 h at 37° C. with Bryostatin-1 (10 nM, 100 nM) in MCDB-131 media or MCDB-131 media alone. Inserts were washed three times with Hank's Balanced Salt Solution (HBSS) (to eliminate drug effects on the neutrophils) and placed in a new plate containing either 500 μL 100 nM LTB4, or HBSS alone for control. 500 μL HBSS was then added to the top well and spiked with 500,000 neutrophils. For TNF-α experiments, HMECs were left in 20 ng/ml TNF-α in MCDB-131 for 24 h TNF-α was removed and HMECs washed three times. HMECs were treated for 1 h with Bryostatin-1 in endothelial growth medium (EGM) (10 nM, 100 nM). The drug was removed and cells were washed three times. 500 μL HBSS was added to both upper and lower chambers and spiked with 500,000 neutrophils. Neutrophils were allowed to migrate for 3 h at 37° C. Migration was stopped by removing the inserts and migration was measured using the myeloperoxidase (MPO) assay.
as §2
(§4) Confluent HMEC monolayers were plated on 48-well plates for adhesion studies, transwells for migration studies, and pretreated with a variety of pharmacological inhibitors and activators for 1 hour. Monolayers were washed three times with HBSS to remove all drug effects on the endothelium. To initiate migration, 100 nM LTB4 was added to the lower compartment and 500,000 neutrophils were added to the upper compartment and allowed to migrate for 3 h. For adhesion assays, LTB4 was added along with 500,000 neutrophils and allowed to adhere for 1 h (time of max. adhesion as determined in FIG. 1). […] The data are shown as % change in migration and adhesion as assessed by MPO assay. All values are expressed as means±SE. Data were analyzed using a one-way ANOVA with Bonferroni corrections for multiple comparisons. Probability (p) values of <0.05 were considered significant. ***p<0.001 vs. LTB4; **p<0.01 vs. LTB4; **p<0.05 vs. LTB4; n=4 for all experiments.

[4] = system: HMECs; format: cell-based, human; settings: for TNF-α induced neutrophil TEM (Type II migration): HMECs, 24 h TNF-α 10 or 20 ng/ml, 1 hour pretreatment with 100 nM
Method: as §3, §2

[5] = system: HMECs; assay: Time course of protection against LTB4 induced PMN TEM after 1 h pretreatment, HMECs; format: cell-based, human; settings: for time after pretreatment up to which LTB4 induced migration is reduced: 100 nM, 1 h pretreatment, washed, tested at 0, 24, 48 hours; for time after pretreatment for which reduction in LTB4 induced migration is maintained: single 1 h 100 nM pretreatment
Method: FIG. 6 graphically depicts protection against LTB4 induced PMN TEM with PMA up to 48 h after pretreatment. HMECs were pretreated for 1 h with PMA and washed with HBSS three times to remove PMA prior to replacement of culture medium. Neutrophil migration studies were then performed at 0, 24, or 48 hours. Migration was stimulated by adding 500,000 neutrophils to the top well and 100 nM LTB4 to the lower well at 0, 24, and 48 hours after PMA pretreatment. […] PMA (100 nM, (10^−7M) reduced LTB4 induced migration up to 48 hours after 1 h of endothelial-specific pretreatment (***p<0.001).
Referring now to FIG. 7, FIG. 7 graphically depicts protection from LTB4 induced PMN TEM with Bryostatin-1 up to 48 hours after pretreatment. HMECs were pretreated for 1 h with Bryostatin-1 and washed with HBSS three times to remove Bryostatin-1 prior to replacement of culture medium. Neutrophil migration studies were then performed at 0, 24, or 48 hours. Migration was stimulated by adding 500,000 neutrophils to the top well and 100 nM LTB4 to the lower well at 0, 24, and 48 hours after Bryostatin-1 pretreatment. […] Bryostatin-1 (100 nM) reduced LTB4 induced migration up to 48 hours after 1 hour endothelial pretreatment (***p<0.001).
(§5) At confluency, HUVECs were treated for 1 h at 37° C. with Bryostatin-1 (10 nM, 100 nM) in EGM or EGM alone. Inserts were washed three times with HBSS (to reduce drug effects on the neutrophils) and migration assays were ran at t=0, 24, or 48 h. After time elapsed, HUVECs were placed in a new plate containing either 500 μL 100 nM LTB4 or HBSS alone for control. 500 μL HBSS was then added to the top well and spiked with 500,000 neutrophils. Neutrophils were allowed to migrate for 3 h at 37° C. Migration was stopped by removing the inserts and migration was measured using the MPO assay.
as §2

[6] = system: HUVECs; assay: Time course of protection against LTB4 induced PMN TEM after 1 h pretreatment, HUVECs; format: cell-based, human; settings: single 1 h 100 nM pretreatment
Method: as §5, §2

[7] = system: PKC-δ siRNA nucleofected HUVEC; assay: LTB4 induced neutrophil migration across PKC-δ siRNA nucleofected HUVEC; format: cell-based, human; settings: 100 nM, 1 hour
Method: as §1, §2
(§6) Optimum nucleofection parameters were determined using nucleofection of a control vector pmaxGFP. Using fluorescence microscopy and flow cytometry, 2 μg vector/500,000 cells nucleofected yielded the highest nucleofection (data not shown). HUVECs were grown to 70% confluency, trypsinized, and then counted. […]

[8] = system: PKC-ε siRNA nucleofected HUVEC; assay: LTB4 induced neutrophil migration across PKC-ε siRNA nucleofected HUVEC; format: cell-based, human; settings: 1 hour pretreatment
Method: as §1, §2, §6

[9] = system: HMEC monolayers; assay: LTB4 induced neutrophil adhesion to the endothelial monolayer; format: cell-based, human; settings: data not shown
Method: as §4

[10] = system: HMEC; assay: Alamar blue endothelial viability assay, HMEC; format: cell-based, human; settings: single 1 h 100 nM treatment; time points 1, 24, 48 h
Method: (§7) The Alamar blue assay was used to determine endothelial viability after pharmacological intervention. Alamar blue contains a REDOX indicator that results in a color change upon chemical reduction by cellular metabolic activity. Endothelial cells were treated with Bryostatin-1 (100 nM) for 1 h and washed three times with HBSS. Alamar blue (10%) in media was added for 2.5 h at T=0, 24, or 48 hours after drug treatment and the ratio of absorbances (570-600 nm) was measured to determine metabolic activity.

[11] = system: HUVEC; assay: Alamar blue endothelial viability assay, HUVEC; format: cell-based, human
Method: as §7

[12] = cited from earlier work
[13] = system: T84 intestinal epithelia; settings: cited from earlier work
[14] = system: endothelial and epithelial cells; settings: several types of endothelial and epithelial cells; cited from earlier work
[15] = single 1 h 100 nM treatment, time points 1, 24, 48 h (PMA: except 48 h)

With Cn1c2ccccc2c2c3c(c4c5ccccc5n(CCC#N)c4c21)CNC3=O [GO-6976] the “restoration of PMN TEM in response to LTB4 by PKC inhibitors (reversal of Bryostatin-1 protection)” value [1] was “did not restore PMN TEM”.

For hypocrellin A, the “increased permeability caused by high glucose and PMA” value [2] is listed as “reduced this increased permeability”.

In the case of CCC/C=C/C=C/C(=O)O[C@H]1/C(=C/C(=O)OC)C[C@H]2C[C@H]([C@@H](C)O)OC(=O)C[C@H](O)C[C@@H]3C[C@H](OC(C)=O)C(C)(C)[C@](O)(C[C@@H]4C/C(=C/C(=O)OC)C[C@H](/C=C/C(C)(C)[C@]1(O)O2)O4)O3 [Bryostatin-1], the “LTB4 induced neutrophil migration” value [3] is reported as “reduced LTB4 induced migration in a dose dependent manner”, the “LTB4 induced neutrophil migration (PMN TEM)” value [3] is reported as “did not reduce PMN TEM” and the “LTB4 induced neutrophil TEM” value [3] is reported as “attenuated neutrophil TEM to levels below that of basal migration”. The “migration induced by a combination of TNF-α pretreatment and LTB4 gradient” value ([4]; 24 h TNF-α pretreatment and 100 nM LTB4 gradient, data not shown) was “reduced migration”, the “TNF-α induced neutrophil TEM (Type II migration)” value [4] was “attenuated Type II migration; also recorded: totally attenuated” and the “time after pretreatment up to which LTB4 induced migration is reduced” value [5] was “up to 48 hours”. For the same molecule, the “time after pretreatment for which reduction in LTB4 induced migration is maintained” value [5] was “at least 48 h”, the “time after pretreatment for which reduction in LTB4 induced migration is maintained” value ([5]; listed as Bryostatin) was 48 h and the “time after pretreatment for which reduction in LTB4 induced migration is maintained” value [6] was 48 h. The “LTB4 induced neutrophil migration” value ([1]; 100 nM Bryostatin-1, 1 hour, 100 nM LTB4, 3 h) was “reversed; also recorded: significantly suppressed LTB4 induced migration”, the “LTB4 induced neutrophil migration after pretreatment, PKC-δ knocked down” value [7] was “restored the normal level of neutrophil trans endothelial migration” and the “LTB4 induced neutrophil migration after pretreatment, PKC-ε knocked down” value [8] was “did not restore LTB4 induced migration; also recorded: still suppresses migration”. For the same molecule, the “LTB4 induced adhesion to the endothelial monolayer” value [9] was “Neither PMA, nor Bryostatin-1 reduced LTB4 induced adhesion”, the HMEC viability [10] was “no effect” and the HUVEC viability [11, 15] was “no effect”. For the same molecule, the “cardiovascular disturbances or edema” value ([12]; Phase II cancer trials) was “no cardiovascular disturbances or evidence of edema have been observed”, the “major side effects associated with use” value ([12]; Phase II cancer trials) was “myalgias, nausea, and vomiting” and the adverse effects ([12]; healthy subjects and cancer patients, dosing ranges higher than for 100 ng/ml plasma level) was “no adverse effects”. The barrier function [13] was “enhances barrier function” and the “barrier loss induced by TNF-α” value [13] was “inhibits barrier loss”.

With CCCCCCCCCCCCCC(=O)O[C@@H]1[C@@H](C)[C@@]2(O)[C@@H](C=C(CO)C[C@]3(O)C(=O)C(C)=C[C@@H]23)[C@@H]2C(C)(C)[C@]12OC(C)=O [PMA, phorbol myristate acetate] the “LTB4 induced neutrophil migration” value [3] was “reduced LTB4 induced migration in a dose dependent manner”, the “LTB4 induced neutrophil migration (PMN TEM)” value [3] was “did not reduce PMN TEM; also recorded: had no effect on LTB4 induced migration” and the “LTB4 induced neutrophil TEM” value [3] was “attenuated neutrophil TEM to levels below that of basal migration”. For the same molecule, the “migration induced by a combination of TNF-α pretreatment and LTB4 gradient” value [4] was “reduced migration”, the “TNF-α induced neutrophil TEM (Type II migration)” value [4] was “attenuated Type II migration; also recorded: totally attenuated” and the “time after pretreatment up to which LTB4 induced migration is reduced” value [5] was “up to 48 hours”. For the same molecule, the “time after pretreatment for which reduction in LTB4 induced migration is maintained” value [6] was “up to 48 h”, the “LTB4 induced neutrophil migration after pretreatment, PKC-ε knocked down” value [8] was “did not restore LTB4 induced migration” and the “LTB4 induced adhesion to the endothelial monolayer” value [9] was “Neither PMA, nor Bryostatin-1 reduced LTB4 induced adhesion”. The HMEC viability [10] was “no effect”, the HUVEC viability ([11]; 48 h after a single 1 h treatment with 100 nM) was “slight but significant reduction in viability” and the HUVEC viability [11, 15] was “no effect”. For the same molecule, the “trans endothelial resistance (TER)” value [14] was “decrease trans endothelial resistance (TER)”.

For CN(C)CCCn1cc(C2=C(c3c[nH]c4ccccc34)C(=O)NC2=O)c2ccccc21 [GF10923X], the “restoration of PMN TEM in response to LTB4 by PKC inhibitors (reversal of Bryostatin-1 protection)” value [1] was “did not restore PMN TEM”.

For COc1ccc2c(c1)c(C1=C(c3c[nH]c4ccccc34)C(=O)NC1=O)cn2CCCN(C)C [Go-6983], the “Bryostatin-1 mediated reduction in migration towards LTB4, effect of PKC inhibitor pretreatment” value ([1]; inhibitor 10 or 100 nM, 30 minutes before 100 nM Bryostatin-1) was “prevented”, the “restoration of PMN TEM in response to LTB4 by PKC inhibitors (reversal of Bryostatin-1 protection)” value [1] was “dose dependently restored neutrophil migration” and the “restoration of PMN TEM in response to LTB4 by PKC inhibitors (reversal of Bryostatin-1 protection)” value ([1]; listed as G0-6983) was “dose dependently reversed”.

For CC(=O)c1c(O)c(C)c(O)c(Cc2c(O)c3c(c(C(=O)/C=C/c4ccccc4)c2O)OC(C)(C)C=C3)c1O [Rottlerin], the “restoration of PMN TEM in response to LTB4 by PKC inhibitors (reversal of Bryostatin-1 protection)” value [1] was “did not restore PMN TEM”.
